Molecular target: T1, ALK (Homo sapiens, UniProt Q9UM73)
T1 construct: purchased Millipore
Assay: ALK kinase assay (HTRF)
Format: biochemical
Details: apparent Ki from IC50 by Cheng-Prusoff; ALK (Millipore) 3 nM or 4 nM, 50 μM ATP, 1 h at room temperature; read-out: HTRF_ALK Human - Ki

T1 sequence (Q9UM73 19-1620): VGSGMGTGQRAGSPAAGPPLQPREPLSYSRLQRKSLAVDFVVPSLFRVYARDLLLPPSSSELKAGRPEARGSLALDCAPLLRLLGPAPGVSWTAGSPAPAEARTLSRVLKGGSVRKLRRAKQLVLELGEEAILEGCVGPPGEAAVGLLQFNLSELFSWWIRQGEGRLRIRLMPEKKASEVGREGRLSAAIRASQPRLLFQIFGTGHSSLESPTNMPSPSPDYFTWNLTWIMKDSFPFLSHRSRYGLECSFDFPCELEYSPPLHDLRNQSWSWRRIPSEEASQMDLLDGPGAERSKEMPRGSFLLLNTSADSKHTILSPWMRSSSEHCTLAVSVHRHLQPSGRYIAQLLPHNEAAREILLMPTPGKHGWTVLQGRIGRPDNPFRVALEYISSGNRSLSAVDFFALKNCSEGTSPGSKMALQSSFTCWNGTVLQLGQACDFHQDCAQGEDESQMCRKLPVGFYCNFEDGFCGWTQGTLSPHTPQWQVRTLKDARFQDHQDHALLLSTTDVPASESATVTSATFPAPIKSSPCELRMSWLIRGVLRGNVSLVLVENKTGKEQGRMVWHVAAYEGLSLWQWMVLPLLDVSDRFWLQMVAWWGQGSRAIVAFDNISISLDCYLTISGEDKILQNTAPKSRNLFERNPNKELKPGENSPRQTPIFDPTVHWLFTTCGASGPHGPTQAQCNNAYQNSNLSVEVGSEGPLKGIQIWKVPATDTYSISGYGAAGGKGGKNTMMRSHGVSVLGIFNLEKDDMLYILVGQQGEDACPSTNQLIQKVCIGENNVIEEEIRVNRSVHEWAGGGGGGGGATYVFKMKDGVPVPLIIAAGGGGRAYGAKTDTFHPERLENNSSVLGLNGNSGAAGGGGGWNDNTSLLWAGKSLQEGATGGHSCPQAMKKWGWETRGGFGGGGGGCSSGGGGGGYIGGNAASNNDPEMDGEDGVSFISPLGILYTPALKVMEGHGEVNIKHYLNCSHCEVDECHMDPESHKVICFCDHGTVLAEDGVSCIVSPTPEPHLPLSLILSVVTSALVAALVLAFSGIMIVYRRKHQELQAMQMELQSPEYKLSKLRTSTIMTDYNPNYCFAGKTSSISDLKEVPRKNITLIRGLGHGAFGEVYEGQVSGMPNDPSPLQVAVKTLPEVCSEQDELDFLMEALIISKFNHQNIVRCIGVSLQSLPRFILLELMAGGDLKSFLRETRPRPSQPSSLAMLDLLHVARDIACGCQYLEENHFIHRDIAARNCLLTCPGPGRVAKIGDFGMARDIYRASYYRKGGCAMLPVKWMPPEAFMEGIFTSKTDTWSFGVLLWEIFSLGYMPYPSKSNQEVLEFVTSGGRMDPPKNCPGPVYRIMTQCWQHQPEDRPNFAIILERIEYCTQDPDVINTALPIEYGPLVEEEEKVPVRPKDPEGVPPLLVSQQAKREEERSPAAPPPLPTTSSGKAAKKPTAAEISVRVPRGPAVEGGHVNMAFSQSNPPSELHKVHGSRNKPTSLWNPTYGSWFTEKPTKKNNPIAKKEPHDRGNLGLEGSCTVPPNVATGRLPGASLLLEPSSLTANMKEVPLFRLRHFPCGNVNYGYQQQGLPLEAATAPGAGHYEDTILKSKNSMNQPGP

Compound	Ki [nM]
COc1cc(N2CCN(C(=O)c3ccccc3)CC2)ccc1Nc1nc(Cc2c(Cl)cccc2Cl)cc2cnnc(O)c12 [Example 9, [4-(4-{[7-(2,6-dichlorobenzyl)-4-hydroxypyrido[3,4-d]pyridazin-5-yl]amino}-3-methoxyphenyl)piperazin-1-yl](phenyl)methanone]	> 470
COc1cc(N2CCNCC2)c(C)cc1Nc1nc(Cc2c(Cl)cccc2Cl)cc2cn[nH]c(=O)c12 [Example 72, 7-(2,6-dichlorobenzyl)-5-{[2-methoxy-5-methyl-4-(piperazin-1-yl)phenyl]amino}pyrido[3,4-d]pyridazin-4(3H)-one]	12
COc1cc(N2CCN(C(=O)CC(C)C)CC2)ccc1Nc1nc(Cc2c(Cl)cccc2Cl)cc2cn[nH]c(=O)c12 [Example 19, 7-(2,6-dichlorobenzyl)-5-({2-methoxy-4-[4-(3-methylbutanoyl)piperazin-1-yl]phenyl}amino)pyrido[3,4-d]pyridazin-4(3H)-one]	> 4700
O=c1[nH]ncc2cc(Oc3ccccc3Cl)nc(Nc3ccc(N4CCNCC4)cn3)c12 [Example 103, 7-(2-chlorophenoxy)-5-{[5-(piperazin-1-yl)pyridin-2-yl]amino}pyrido[3,4-d]pyridazin-4(3H)-one]	20
COc1cc(N2CCN(C(=O)CN(C)C)CC2)ccc1Nc1nc(Cc2c(Cl)cccc2Cl)cc2cnnc(O)c12 [Example 12, 1-[4-(4-{[7-(2,6-dichlorobenzyl)-4-hydroxypyrido[3,4-d]pyridazin-5-yl]amino}-3-methoxyphenyl)piperazin-1-yl]-2-(dimethylamino)ethanone]	3
COc1cc(N2CCNCC2)ccc1Nc1nc(Oc2cccc(F)c2F)cc2cnnc(O)c12 [Example 78, 7-(2,3-difluorophenoxy)-5-{[2-methoxy-4-(piperazin-1-yl)phenyl]amino}pyrido[3,4-d]pyridazin-4-ol]	4
Cc1cc(Nc2nc(Cc3c(Cl)cccc3Cl)cc3cn[nH]c(=O)c23)ccc1N1CCNCC1 [Example 7, 7-(2,6-dichlorobenzyl)-5-{[3-methyl-4-(piperazin-1-yl)phenyl]amino}pyrido[3,4-d]pyridazin-4(3H)-one]	1

Further lines, results first:

Ki [nM]	Compound
2	COc1cc(N2CCNCC2)ccc1Nc1nc(Nc2cccc(Cl)c2Cl)cc2cn[nH]c(=O)c12 [Example 51, 7-[(2,3-dichlorophenyl)amino]-5-{[2-methoxy-4-(piperazin-1-yl)phenyl]amino}pyrido[3,4-d]pyridazin-4(3H)-one]
1	COc1cc(N2CCNCC2)ccc1Nc1nc(Nc2c(F)cccc2Cl)cc2cn[nH]c(=O)c12 [Example 29, 7-[(2-chloro-6-fluorophenyl)amino]-5-{[2-methoxy-4-(piperazin-1-yl)phenyl]amino}pyrido[3,4-d]pyridazin-4(3H)-one]
2	COc1cc(N2CCNCC2)ccc1Nc1nc(Nc2c(Cl)cccc2Cl)cc2cnnc(O)c12 [Example 10, 7-[(2,6-dichlorophenyl)amino]-5-{[2-methoxy-4-(piperazin-1-yl)phenyl]amino}pyrido[3,4-d]pyridazin-4-ol]
3	COc1cc(N2CCNCC2)ccc1Nc1nc(Nc2cc(F)ccc2Cl)cc2cn[nH]c(=O)c12 [Example 27, 7-[(2-chloro-5-fluorophenyl)amino]-5-{[2-methoxy-4-(piperazin-1-yl)phenyl]amino}pyrido[3,4-d]pyridazin-4(3H)-one]
2	COc1cc(N2CCNCC2)ccc1Nc1nc(Nc2ccccc2S(=O)(=O)C(C)C)cc2cn[nH]c(=O)c12 [Example 22, 5-{[2-methoxy-4-(piperazin-1-yl)phenyl]amino}-7-{[2-(propan-2-ylsulfonyl)phenyl]amino}pyrido[3,4-d]pyridazin-4(3H)-one]
36	COc1cc(N2CCNCC2)ccc1Nc1nc(NCc2ccccc2)cc2cn[nH]c(=O)c12 [Example 40, 7-(benzylamino)-5-{[2-methoxy-4-(piperazin-1-yl)phenyl]amino}pyrido[3,4-d]pyridazin-4(3H)-one]

Source: patent US20140155389A1, “BICYCLIC INHIBITORS OF ALK” (ABBVIE INC., priority 2011, published 2014)
